In ChEMBL document CHEMBL5465560, “Selectivity Literature for EUbOPEN Chemogenomic Library” (2024):
One block for each molecule: values may come before it.

Columns and labels:
[1] = molecular target: T1, Serine/threonine-protein kinase LATS2 (Homo sapiens) (UniProt Q9NRM7); assay: Selectivity interaction (LanthaScreen Eu Kinase Binding Assay) EUB0001632a LATS2; conditions: at 10 µM
T1 sequence (whole entry): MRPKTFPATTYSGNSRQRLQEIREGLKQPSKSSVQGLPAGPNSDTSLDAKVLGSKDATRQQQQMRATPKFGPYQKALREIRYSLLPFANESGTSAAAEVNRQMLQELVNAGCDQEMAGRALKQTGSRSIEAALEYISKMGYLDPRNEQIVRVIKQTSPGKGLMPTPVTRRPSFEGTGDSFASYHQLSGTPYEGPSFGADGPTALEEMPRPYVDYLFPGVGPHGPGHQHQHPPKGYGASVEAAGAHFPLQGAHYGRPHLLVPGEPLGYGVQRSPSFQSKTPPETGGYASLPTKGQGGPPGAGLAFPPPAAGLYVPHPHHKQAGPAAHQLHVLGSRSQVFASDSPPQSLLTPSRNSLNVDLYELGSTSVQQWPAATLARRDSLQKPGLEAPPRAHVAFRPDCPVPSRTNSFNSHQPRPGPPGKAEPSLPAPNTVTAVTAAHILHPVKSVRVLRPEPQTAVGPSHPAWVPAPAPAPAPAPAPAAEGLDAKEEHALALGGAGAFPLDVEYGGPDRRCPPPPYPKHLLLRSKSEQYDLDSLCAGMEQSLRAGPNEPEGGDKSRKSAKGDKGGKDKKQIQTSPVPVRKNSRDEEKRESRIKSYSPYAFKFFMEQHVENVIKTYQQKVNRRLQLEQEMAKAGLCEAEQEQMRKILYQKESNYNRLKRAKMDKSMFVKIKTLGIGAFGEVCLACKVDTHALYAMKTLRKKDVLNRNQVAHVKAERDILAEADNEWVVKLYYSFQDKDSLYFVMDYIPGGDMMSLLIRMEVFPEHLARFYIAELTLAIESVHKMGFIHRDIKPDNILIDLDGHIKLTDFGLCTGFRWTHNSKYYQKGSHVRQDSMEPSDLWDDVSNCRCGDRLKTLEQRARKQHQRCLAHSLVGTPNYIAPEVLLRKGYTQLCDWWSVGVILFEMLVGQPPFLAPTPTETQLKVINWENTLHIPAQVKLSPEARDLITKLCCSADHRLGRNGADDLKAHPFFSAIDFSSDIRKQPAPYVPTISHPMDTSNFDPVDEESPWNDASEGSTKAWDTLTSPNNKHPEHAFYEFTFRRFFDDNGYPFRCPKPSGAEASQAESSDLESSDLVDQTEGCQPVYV

Activated CDC42 kinase 1 = Activated CDC42 kinase 1 (Homo sapiens, UniProt Q07912); assay: Selectivity interaction (KinomeScan (DiscoverX)) EUB0000695a TNK2; conditions: at 100 nM
Sequence of Activated CDC42 kinase 1 (Q07912 whole entry, looked up): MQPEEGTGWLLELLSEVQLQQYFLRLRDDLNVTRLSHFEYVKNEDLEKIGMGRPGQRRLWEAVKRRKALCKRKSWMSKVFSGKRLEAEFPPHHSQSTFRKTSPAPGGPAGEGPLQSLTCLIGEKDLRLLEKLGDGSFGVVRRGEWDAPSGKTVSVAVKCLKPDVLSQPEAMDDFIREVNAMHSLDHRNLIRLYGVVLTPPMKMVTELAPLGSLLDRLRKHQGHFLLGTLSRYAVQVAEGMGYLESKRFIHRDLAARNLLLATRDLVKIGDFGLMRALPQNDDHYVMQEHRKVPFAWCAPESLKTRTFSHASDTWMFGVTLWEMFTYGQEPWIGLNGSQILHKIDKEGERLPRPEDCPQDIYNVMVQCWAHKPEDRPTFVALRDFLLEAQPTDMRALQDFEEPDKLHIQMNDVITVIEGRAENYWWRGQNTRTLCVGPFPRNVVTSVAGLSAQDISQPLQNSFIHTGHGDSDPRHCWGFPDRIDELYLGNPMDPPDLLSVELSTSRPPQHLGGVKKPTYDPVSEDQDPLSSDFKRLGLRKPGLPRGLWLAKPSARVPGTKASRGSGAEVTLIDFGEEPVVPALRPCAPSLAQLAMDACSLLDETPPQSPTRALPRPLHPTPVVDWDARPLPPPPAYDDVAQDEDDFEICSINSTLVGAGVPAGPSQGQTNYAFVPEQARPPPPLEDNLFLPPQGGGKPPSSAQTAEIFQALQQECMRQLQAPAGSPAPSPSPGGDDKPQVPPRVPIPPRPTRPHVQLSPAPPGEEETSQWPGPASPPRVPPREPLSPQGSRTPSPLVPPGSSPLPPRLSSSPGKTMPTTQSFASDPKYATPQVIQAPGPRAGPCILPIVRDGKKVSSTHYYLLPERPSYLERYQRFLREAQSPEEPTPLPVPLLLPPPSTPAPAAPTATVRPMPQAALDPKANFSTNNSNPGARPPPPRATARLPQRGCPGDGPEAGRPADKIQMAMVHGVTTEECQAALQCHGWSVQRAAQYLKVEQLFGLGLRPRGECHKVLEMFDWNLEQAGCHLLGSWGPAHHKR

[2] = molecular target: T2, Serine/threonine-protein kinase D2 (Homo sapiens) (UniProt Q9BZL6); assay: Selectivity interaction (KinomeScan (DiscoverX)) EUB0000092b PRKD2; conditions: at 10 µM
T2 sequence (whole entry): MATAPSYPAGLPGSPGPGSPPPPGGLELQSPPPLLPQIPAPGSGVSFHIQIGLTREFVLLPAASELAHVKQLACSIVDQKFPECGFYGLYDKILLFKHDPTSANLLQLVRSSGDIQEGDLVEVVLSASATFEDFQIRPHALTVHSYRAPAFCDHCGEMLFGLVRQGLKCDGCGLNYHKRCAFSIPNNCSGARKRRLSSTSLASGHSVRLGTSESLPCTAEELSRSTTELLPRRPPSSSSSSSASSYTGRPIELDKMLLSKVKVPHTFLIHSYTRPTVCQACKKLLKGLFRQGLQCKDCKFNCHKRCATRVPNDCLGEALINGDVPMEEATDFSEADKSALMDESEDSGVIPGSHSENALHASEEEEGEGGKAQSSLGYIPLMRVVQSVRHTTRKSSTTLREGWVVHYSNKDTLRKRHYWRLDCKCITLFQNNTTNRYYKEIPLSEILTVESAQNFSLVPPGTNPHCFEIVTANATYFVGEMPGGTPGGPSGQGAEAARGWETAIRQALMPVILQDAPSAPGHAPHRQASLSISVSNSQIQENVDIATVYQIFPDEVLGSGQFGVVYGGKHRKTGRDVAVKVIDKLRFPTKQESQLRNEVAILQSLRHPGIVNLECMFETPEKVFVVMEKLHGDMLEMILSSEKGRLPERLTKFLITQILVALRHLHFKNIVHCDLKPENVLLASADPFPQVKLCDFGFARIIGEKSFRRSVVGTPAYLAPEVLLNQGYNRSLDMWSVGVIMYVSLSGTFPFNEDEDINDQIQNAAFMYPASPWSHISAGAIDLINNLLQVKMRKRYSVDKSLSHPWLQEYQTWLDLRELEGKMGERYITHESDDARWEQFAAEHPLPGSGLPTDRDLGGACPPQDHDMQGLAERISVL

[3] = molecular target: T3, Muscle, skeletal receptor tyrosine-protein kinase (Homo sapiens) (UniProt O15146); assay: Selectivity interaction (KinomeScan (DiscoverX)) EUB0000655a MUSK; conditions: at 10 µM
T3 sequence (whole entry): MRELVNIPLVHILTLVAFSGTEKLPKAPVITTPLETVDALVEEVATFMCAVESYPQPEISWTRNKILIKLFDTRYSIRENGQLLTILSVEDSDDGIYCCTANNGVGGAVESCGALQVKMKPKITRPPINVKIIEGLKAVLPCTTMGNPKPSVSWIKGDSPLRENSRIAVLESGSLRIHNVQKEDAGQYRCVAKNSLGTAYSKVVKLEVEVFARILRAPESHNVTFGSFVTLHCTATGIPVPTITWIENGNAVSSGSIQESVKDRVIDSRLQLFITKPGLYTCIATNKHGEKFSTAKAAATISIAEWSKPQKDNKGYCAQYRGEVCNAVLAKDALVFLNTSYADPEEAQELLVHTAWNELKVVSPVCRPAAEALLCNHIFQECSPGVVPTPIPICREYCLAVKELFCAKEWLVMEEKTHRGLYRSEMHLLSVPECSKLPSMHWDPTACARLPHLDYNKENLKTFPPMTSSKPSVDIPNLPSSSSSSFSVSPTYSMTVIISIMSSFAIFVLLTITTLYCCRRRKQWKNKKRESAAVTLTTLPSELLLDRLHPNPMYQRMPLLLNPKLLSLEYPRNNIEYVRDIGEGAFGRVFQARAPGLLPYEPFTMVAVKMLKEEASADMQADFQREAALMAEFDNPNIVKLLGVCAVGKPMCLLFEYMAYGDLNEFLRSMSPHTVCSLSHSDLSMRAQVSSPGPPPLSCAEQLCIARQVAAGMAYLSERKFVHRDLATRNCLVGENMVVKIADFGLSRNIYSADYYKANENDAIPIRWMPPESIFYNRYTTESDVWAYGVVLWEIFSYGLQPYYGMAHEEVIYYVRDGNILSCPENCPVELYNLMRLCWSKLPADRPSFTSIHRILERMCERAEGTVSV

- % of inhibition [1]: 1.75%
Structure (SMILES): Cn1cc(-n2cnc3c(NCc4nc5cc(Cl)c(Cl)cc5[nH]4)nc(N4CCOCC4)nc32)cn1

Structure (SMILES): Cc1cc(F)c(C(=O)Nc2cccc(-c3nncn3C(C)C)n2)cc1-n1cnc(C2CC2)c1
- % of control (Activated CDC42 kinase 1): 98%

Structure (SMILES): CCC(=O)N1CCN(c2ccc(-n3c(=O)ccc4cnc5ccc(-c6cnc7ccccc7c6)cc5c43)cc2C(F)(F)F)CC1
- % of control [2]: 100%

Structure (SMILES): CN(C)CCOc1ccc(-c2nc(-c3ccncc3)c(-c3ccc4c(c3)CC/C4=N\O)[nH]2)cc1
- % of control [3]: 98%
